Here are results for 5 molecules from US20030220266A1, “Method of treating a disease” (priority 2001, published 2003).

Holding throughout (format): cell-based, human
Series [1] deals with COX-2, EP2 and EP4 expression in HeLa cells. Put plainly: Real-time RT-PCR of COX-2, EP2 and EP4 in HeLa cells treated with seminal plasma. The settings on record: HeLa cells co-treated with seminal plasma and inhibitor. As for the experimental part:
In sexually active women growth and invasiveness of neoplastic cervical cells may be also under the direct influence of PGE present in seminal plasma. […] The expression of COX-2, EP2 and EP4, was measured by real-time RT-PCR.

Series [2] concerns HeLa COX-1 Tet-Off cells. Put plainly: PGE2 secretion into culture medium (ELISA) after COX-1 induction. The settings on record: 5 μg/ml arachidonic acid. From the text:
The Tet-Off expression system we used was developed by Gossen and co-workers (38) to deliver doxycycline-regulated expression based on the high specificity of the Escherichia coli tet repressor-operator-doxycycline interaction. In the Tet-Off expression system each clonal cell line is used as its own control (cells cultured in the presence of DOX) and the overexpression of the integrated target gene is modulated solely by removing DOX from the culture medium. This eliminates the need for a control clonal cell line transfected with vector alone (as used with constitutive stable expression systems) thereby overcoming the inherent variation that arises from different sites of integration of DNA between different clones. HeLa Tet-Off cells containing the pTet-Off vector stably transfected and constitutively expressing the tetracycline-controlled transactivator tTA (composed of a fusion of the TetR and VP16 activation domain) were purchased from Clontech. The pBS(SK−)/PSHI cDNA containing the full length COX-1 gene (kindly supplied by Dr Stephen Prescott, University of Utah, Salt Lake City, Utah) was used as the template plasmid. The response plasmid pTRE2 (containing the minimal cytomegalovirus promoter containing Tet-operator sequences cloned upstream of the cDNA to be expressed) and the plasmid for antibiotic selection (pTK-hygromycin) for use with the Tet-Off system were purchased from Clontech. The COX-1 gene was excised from the template plasmid and ligated at the Bam H1 site of the pTRE2 vector. The orientation of the insert was verified by dideoxy DNA sequencing using the sequence specific primers: 5′-[…]-3′ (SEQ ID No 8) and 5′-[…]-3′ (SEQ ID No 9) (Clontech). Cells were plated in 12 well dishes in complete medium containing 10 μg/ml G418 per well and were allowed to attach and grow overnight. The pTRE2 vector containing the COX-1 gene (2 μg) was co-transfected with pTK-hygromycin (0.1 μg, which contains the hygromycin gene under control of the minimal thymidine kinase (TK) promoter) into the HeLa Tet-Off cell line at about 80% confluency using pfx-5 (Invitrogen, De Schelp, Netherlands) diluted in Optimem (Gibco). Cells were incubated for 4 hrs at 37° C. in 5% humidified CO2. Thereafter the medium was replaced with fresh complete medium containing no G418. Cells were allowed to grow for 72 hrs. Transfected cells were then seeded together with wild-type cells. Clones were selected against 200 μg/ml hygromycin in the presence of 1 μg/ml DOX. At least 50 hygromycin-resistant clones were picked using cloning cylinders. Clones were allowed to grow under continuous selection with hygromycin in the presence of DOX and then screened for the ability to express COX-1 in the presence and absence of DOX by immunoblot analysis. […]
In general terms: ELISA stands for enzyme-linked immunosorbent assay.

The test system of series [3] is COX-1, COX-2 and PGES expression in HeLa COX-1 Tet-Off cells. In words: Western blot of COX-1, COX-2 and PGES expression after COX-1 induction. As to conditions: for effect on COX-1-mediated up-regulation of COX-2 expression / effect on COX-1-mediated up-regulation of PGES expression / effect on COX-1 overexpression: co-treatment of cells induced for 24, 48 and 72 hrs. From the text:
(§1) The Tet-Off expression system we used was developed by Gossen and co-workers (38) to deliver doxycycline-regulated expression based on the high specificity of the Escherichia coli tet repressor-operator-doxycycline interaction. In the Tet-Off expression system each clonal cell line is used as its own control (cells cultured in the presence of DOX) and the overexpression of the integrated target gene is modulated solely by removing DOX from the culture medium. This eliminates the need for a control clonal cell line transfected with vector alone (as used with constitutive stable expression systems) thereby overcoming the inherent variation that arises from different sites of integration of DNA between different clones. HeLa Tet-Off cells containing the pTet-Off vector stably transfected and constitutively expressing the tetracycline-controlled transactivator tTA (composed of a fusion of the TetR and VP16 activation domain) were purchased from Clontech. The pBS(SK−)/PSHI cDNA containing the full length COX-1 gene (kindly supplied by Dr Stephen Prescott, University of Utah, Salt Lake City, Utah) was used as the template plasmid. The response plasmid pTRE2 (containing the minimal cytomegalovirus promoter containing Tet-operator sequences cloned upstream of the cDNA to be expressed) and the plasmid for antibiotic selection (pTK-hygromycin) for use with the Tet-Off system were purchased from Clontech. The COX-1 gene was excised from the template plasmid and ligated at the Bam H1 site of the pTRE2 vector. The orientation of the insert was verified by dideoxy DNA sequencing using the sequence specific primers: 5′-[…]-3′ (SEQ ID No 8) and 5′-[…]-3′ (SEQ ID No 9) (Clontech). Cells were plated in 12 well dishes in complete medium containing 10 μg/ml G418 per well and were allowed to attach and grow overnight. The pTRE2 vector containing the COX-1 gene (2 μg) was co-transfected with pTK-hygromycin (0.1 μg, which contains the hygromycin gene under control of the minimal thymidine kinase (TK) promoter) into the HeLa Tet-Off cell line at about 80% confluency using pfx-5 (Invitrogen, De Schelp, Netherlands) diluted in Optimem (Gibco). Cells were incubated for 4 hrs at 37° C. in 5% humidified CO2. Thereafter the medium was replaced with fresh complete medium containing no G418. Cells were allowed to grow for 72 hrs. Transfected cells were then seeded together with wild-type cells. Clones were selected against 200 μg/ml hygromycin in the presence of 1 μg/ml DOX. At least 50 hygromycin-resistant clones were picked using cloning cylinders. Clones were allowed to grow under continuous selection with hygromycin in the presence of DOX and then screened for the ability to express COX-1 in the presence and absence of DOX by immunoblot analysis. […] Unless otherwise stated, all clones were maintained uninduced in 1 μg/ml DOX, 200 μg/ml hygromycin and 100 μg/ml G418. COX-inhibition studies were conducted by growing cells in medium containing 3 μg/ml indomethacin or 10 μM NS-398.
(§2) Cells were seeded in 5 cm dishes and allowed to attach overnight. The following day, the cells were synchronised by incubating with serum-free medium for 24 hrs. Thereafter, the medium was replaced with fresh complete medium and the cells were grown in the presence or absence of DOX for 24, 48 and 72 hrs respectively. In parallel, cells were co-treated with indomethacin or NS-398. Cells were harvested by lysing in protein lysis buffer (150 mM NaCl, 10 mM Tris-HCl pH 7.4, 1 mM EDTA, 1% Triton X-100, 0.1% SDS). The protein content in the supernatant fraction was determined as described above. The clarified cell lysates (20 μg) were denatured and electrophoresed on 4-20% Tris-Glycine gels (NOVEX, Invitrogen).

The test system of series [4] is bFGF, VEGF, Ang-1 and Ang-2 expression in HeLa COX-1 Tet-Off cells. Put plainly: Western blot of angiogenic factors after COX-1 overexpression. As to conditions: COX-1 overexpression up to 72 hrs.
Excerpt: as §1, §2
(In general: A western blot detects proteins with antibodies after separation by electrophoresis.)

Series [5] concerns EP1 receptor in COX-1 Tet-Off HeLa cells. Put plainly: Inositol phosphate accumulation (EP1 receptor activity). As to conditions: induced expression of COX-1 and PGE2 stimulation; data not shown. From the text: No significant difference in basal cAMP production was detected in uninduced and induced cells (FIG. 6). […] The activity of EP1 receptor was investigated by measuring inositol phosphate accumulation (41).

Series [6] has as its system EP2/EP4 receptors in cervical tissue. Put plainly: cAMP production in cervical tissues in response to exogenous PGE2 or forskolin. As to conditions: 300 nM PGE2 or 50 μM forskolin, 5 minutes, after overnight indomethacin. As for the experimental part:
Cervical tissues (n=6 squamous carcinoma, n=1 adenocarcinoma and n=5 normal cervix) were sectioned finely, divided equally into three aliquots and incubated overnight in Dulbecco's Modified Eagle Medium (DMEM) (Sigma), containing 10% foetal calf serum, 0.3 mg/ml L-glutamine, 100 IU penicillin and 100 μg streptomycin and 3 μg/ml indomethacin. […] Tissue sections were harvested-by centrifugation at 2000 g. The supernatant was discarded and the tissue homogenised in 0.1 M HCl. cAMP concentration and protein concentrations were determined as mentioned above
For orientation: cAMP levels reflect the balance of adenylyl cyclase and phosphodiesterase activity.

Series [7] deals with cAMP-dependent PGE2-receptors in HeLa cells. Put plainly: Real-time quantitative RT-PCR of PGE2 receptors after COX-1 overexpression. The settings on record: cells grown in medium containing indomethacin. From the text:
The Tet-Off expression system we used was developed by Gossen and co-workers (38) to deliver doxycycline-regulated expression based on the high specificity of the Escherichia coli tet repressor-operator-doxycycline interaction. In the Tet-Off expression system each clonal cell line is used as its own control (cells cultured in the presence of DOX) and the overexpression of the integrated target gene is modulated solely by removing DOX from the culture medium. This eliminates the need for a control clonal cell line transfected with vector alone (as used with constitutive stable expression systems) thereby overcoming the inherent variation that arises from different sites of integration of DNA between different clones. HeLa Tet-Off cells containing the pTet-Off vector stably transfected and constitutively expressing the tetracycline-controlled transactivator tTA (composed of a fusion of the TetR and VP16 activation domain) were purchased from Clontech. The pBS(SK−)/PSHI cDNA containing the full length COX-1 gene (kindly supplied by Dr Stephen Prescott, University of Utah, Salt Lake City, Utah) was used as the template plasmid. […]

For series [8], the system named is cAMP-linked PGE2 receptors in HeLa COX-1 Tet-Off cells. Put plainly: PGE2 stimulation and cAMP measurement in HeLa COX-1 Tet-Off cells. As to conditions: cells grown in medium containing indomethacin, COX-1 induced 48 hrs.
Procedure: Cells (2×10^5) were plated in 6 well dishes containing 4 ml/well of complete medium containing DOX. Cells were allowed to attach overnight. The following day, the cells were synchronised by incubating with fresh medium containing no foetal bovine serum for 24 hrs. COX-1 Tet-Off cells were induced, by DOX withdrawal from the culture medium for 48 hrs at 37° C. in humidified 5% CO2 in the presence or absence of indomethacin. In parallel, control uninduced cells were supplemented daily with DOX. Thereafter the culture medium was removed and replaced with serum-free medium containing IBMX (Sigma) to a final concentration of 1 mM for 40 mins at 37° C. […] Following stimulation, the medium was removed and the cells lysed in 0.1M HCl. cAMP concentration was quantified by ELISA using a cAMP kit (Biomol, Affiniti, Exeter, UK) as per the manufacturer's protocol and normalised to protein concentration of the lysate. Protein concentrations were determined using protein assay kits (Bio-Rad).
The subject of series [9] is cervical carcinoma tissue and normal cervix. Put plainly: Basal cAMP levels in cervical tissues cultured overnight.
Procedure: Determination of Basal CAMP levels in cervical tissues. Initially, basal cAMP levels were measured in cervical tissue (n=7 squamous cell carcinomas and n=5 normal cervix; FIG. 12A). Carcinoma and normal cervical tissues were obtained on the day of surgery/biopsy, sectioned finely and divided equally into three aliquots. The tissue was transported at 4° C. and then incubated in 35 mm tissue culture dishes containing 2 ml of Dulbecco's Modified Eagle Medium (DMEM) (Sigma), containing 10% foetal calf serum, 0.3 mg/ml L-glutamine, 100 IU penicillin and 100 μg streptomycin for 1.5 hours. One aliquot of tissue was snap frozen to determine basal cAMP concentration in the tissue at the time of collection. The other two aliquots were incubated overnight at 37° C. in humidified 5% CO2 in the presence or absence of 3 μg/ml indomethacin [a dual COX enzyme inhibitor (24, 32)]. Subsequently, tissue sections were harvested by centrifugation at 2000 g. The supernatant was discarded and the tissue homogenised in 0.1 M HCl. cAMP concentration was quantified by ELISA using a cAMP kit (Biomol; Affiniti, Exeter, UK) as per the manufacturer's protocol and normalised to protein concentration of the homogenate, Protein concentrations were determined using protein assay kits (Bio-Rad, Hemel Hempstead, UK).
Setting [10] is: COX-1 induced 48 hrs with inhibitor (3 μg/ml indomethacin or 10 μM NS-398), induced without inhibitor 272.2±18.8 nM.
[11] abbreviates: COX-1 induced 72 hrs with inhibitor (3 μg/ml indomethacin or 10 μM NS-398), induced without inhibitor 537±22.5 nM.

“Also recorded” adds a separate entry of the source.

Consider `O=S(=O)(NCCNC/C=C/c1ccc(Br)cc1)c1cccc2cnccc12` [H-89], for which the “effect on seminal plasma up-regulation of EP2/EP4 receptor expression” value (from here on “effect on seminal plasma up-regulation”) in series [1] was “partially abolished”.

Take `CS(=O)(=O)Nc1ccc([N+](=O)[O-])cc1OC1CCCCC1` [NS-398]: the “PGE2 levels in culture medium” value in series [2] (setting [10]) was 132 ± 26.2 nM. Besides, the “PGE2 levels in culture medium” value in [2] (setting [11]) was found to be 268 ± 17 nM. For the same molecule, in series [3], the “effect on COX-1-mediated up-regulation of COX-2 expression” value is “No significant change; also recorded: Partial inhibition”, the “effect on COX-1-mediated up-regulation of PGES expression” value was “Partial inhibition” and the “effect on COX-1 overexpression” value is recorded as “no alteration”. For the same molecule, the “delay of induction of PGES by COX-1 overexpression” value in series [3] (treatment of HeLa cells with NS-398) came to 24 h. In series [4], the “effect on COX-1 associated up-regulation of Ang-1” value (“effect … of Ang-1” for short) is “partially reduced; also recorded: partially inhibited”, the “effect on COX-1 associated up-regulation of Ang-2” value (from here on “effect … of Ang-2”) is on record as “partially reduced; also recorded: partially inhibited”, the “effect on COX-1 associated up-regulation of VEGF” value (from here on “effect … of VEGF”) is listed as “partially reduced; also recorded: partially inhibited” and the “effect on COX-1 associated up-regulation of bFGF” value (“effect … of bFGF” for short) was “partially reduced; also recorded: partially inhibited”. In addition, the “effect on seminal plasma up-regulation” value in series [1] is “partially abolished”.

As to `CCCCC[C@H](O)/C=C/[C@H]1[C@H](O)CC(=O)[C@@H]1C/C=C\CCCC(=O)O` [PGE2, prostaglandin E2], the inositol phosphate accumulation result in series [5] is given as “No inositol phosphate accumulation above basal”.

As for `C=C[C@@]1(C)CC(=O)[C@]2(O)[C@@]3(C)[C@@H](O)CCC(C)(C)[C@@H]3[C@H](O)[C@H](OC(C)=O)[C@@]2(C)O1` [forskolin], in [6], the “fold induction of cAMP generation in cancer tissue” value came out at 55.3±15.84 fold and the “fold induction of cAMP generation in normal cervix” value is recorded as 9.18±1.59 fold.

On to `COc1ccc2c(c1)c(CC(=O)O)c(C)n2C(=O)c1ccc(Cl)cc1` [indomethacin], for which the “PGE2 levels in culture medium” value in [2] (setting [10]) was 62 ± 7 nM. Also, in series [2] (setting [11]), the “PGE2 levels in culture medium” value was found to be 76 ± 10.7 nM. Further, in [3], the “effect on COX-1-mediated up-regulation of COX-2 expression” value is recorded as “inhibited; also recorded: abolished”, the “effect on COX-1-mediated up-regulation of PGES expression” value was “inhibited; also recorded: abolished” and the “effect on COX-1 overexpression” value was “no alteration”. Besides, in series [4], the “effect … of Ang-1” value is “abolished”, the “effect … of Ang-2” value is listed as “abolished” and the “effect … of bFGF” value was “abolished”. In addition, in series [4] (listed as Indomethacin), the “effect … of Ang-1” value was “inhibited”, the “effect … of Ang-2” value is on record as “inhibited”, the “effect … of VEGF” value is given as “inhibited” and the “effect … of bFGF” value is “inhibited”. Further, in series [4] (listed as indormethacin), the “effect … of VEGF” value is on record as “abolished”. The “effect on up-regulation of the cAMP-dependent PGE2-receptors by COX-1 overexpression” value in series [7] was “inhibited”. Further, the “effect on elevated cAMP production in COX-1 overexpressing cells in response to PGE2” value in [8] is listed as “abolished”. Also, in [9] (overnight culture in presence of indomethacin, without indomethacin 64.2±5.1), the “cAMP concentration in carcinoma tissue” value came out at 2.59±0.64 pmol cAMP/mg protein. Moreover, the “cAMP concentration in normal cervical tissue” value in [9] (overnight incubation in presence of indomethacin, without indomethacin 11.96±1.35) came out at 4.0±0.7 pmol cAMP/mg protein. Further, in [1], the “effect on seminal plasma up-regulation” value is given as “abolished”.
